ChEMBL document CHEMBL4732267, “Novel Substituted Exomethylene-oxindoles as HPK1 Inhibitors” (ACS Med Chem Lett, 2021)

Target: Mitogen-activated protein kinase kinase kinase kinase 1 (Homo sapiens, UniProt Q92918)
Test: Inhibition of recombinant human HPK1 expressed in baculovirus infected insect cells using SRKS1 peptide as substrate incubated for 15 mins followed by substrate addition and measured after 3 hrs by TR-FRET assay

Chain of Mitogen-activated protein kinase kinase kinase kinase 1 (Q92918 whole entry): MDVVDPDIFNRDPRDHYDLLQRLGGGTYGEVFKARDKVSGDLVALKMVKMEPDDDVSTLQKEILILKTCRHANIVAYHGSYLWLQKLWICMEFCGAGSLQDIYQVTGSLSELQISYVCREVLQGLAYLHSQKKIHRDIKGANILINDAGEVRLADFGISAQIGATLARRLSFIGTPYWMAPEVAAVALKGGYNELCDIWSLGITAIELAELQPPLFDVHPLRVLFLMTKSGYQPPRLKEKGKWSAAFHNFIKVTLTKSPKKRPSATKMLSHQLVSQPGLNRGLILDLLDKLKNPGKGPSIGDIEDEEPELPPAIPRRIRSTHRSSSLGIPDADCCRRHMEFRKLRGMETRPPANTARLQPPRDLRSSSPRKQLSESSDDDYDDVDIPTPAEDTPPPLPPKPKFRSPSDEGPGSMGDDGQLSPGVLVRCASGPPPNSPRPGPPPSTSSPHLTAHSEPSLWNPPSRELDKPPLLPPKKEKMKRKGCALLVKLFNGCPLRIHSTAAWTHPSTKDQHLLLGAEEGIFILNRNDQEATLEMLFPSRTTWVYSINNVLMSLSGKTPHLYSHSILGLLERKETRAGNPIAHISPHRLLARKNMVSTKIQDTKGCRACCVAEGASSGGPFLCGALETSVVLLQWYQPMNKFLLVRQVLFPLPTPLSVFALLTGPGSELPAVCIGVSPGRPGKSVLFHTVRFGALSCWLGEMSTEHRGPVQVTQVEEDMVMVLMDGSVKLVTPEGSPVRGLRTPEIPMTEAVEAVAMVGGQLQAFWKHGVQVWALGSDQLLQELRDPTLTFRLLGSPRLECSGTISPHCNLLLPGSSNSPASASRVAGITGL

IC50: 0.05 nM
SMILES: Cc1c(-c2cc(F)c3c(c2)/C(=C/c2ccc(C4CC4)[nH]2)C(=O)N3)cnc2c1NCCO2
